Reference: US20240368142A1, “KCNT1 INHIBITORS AND METHODS OF USE” (Praxis Precision Medicines, Inc., priority 2021, published 2024)

Biological target: T1, KCNT1 (KNa1.1, Slack) (Homo sapiens, UniProt Q5JUK3)
T1 construct: expressed in transfected cells; host or cells: HEK-TREX (tetracycline inducible cell line)
T1 sequence (Q5JUK3 1-1230): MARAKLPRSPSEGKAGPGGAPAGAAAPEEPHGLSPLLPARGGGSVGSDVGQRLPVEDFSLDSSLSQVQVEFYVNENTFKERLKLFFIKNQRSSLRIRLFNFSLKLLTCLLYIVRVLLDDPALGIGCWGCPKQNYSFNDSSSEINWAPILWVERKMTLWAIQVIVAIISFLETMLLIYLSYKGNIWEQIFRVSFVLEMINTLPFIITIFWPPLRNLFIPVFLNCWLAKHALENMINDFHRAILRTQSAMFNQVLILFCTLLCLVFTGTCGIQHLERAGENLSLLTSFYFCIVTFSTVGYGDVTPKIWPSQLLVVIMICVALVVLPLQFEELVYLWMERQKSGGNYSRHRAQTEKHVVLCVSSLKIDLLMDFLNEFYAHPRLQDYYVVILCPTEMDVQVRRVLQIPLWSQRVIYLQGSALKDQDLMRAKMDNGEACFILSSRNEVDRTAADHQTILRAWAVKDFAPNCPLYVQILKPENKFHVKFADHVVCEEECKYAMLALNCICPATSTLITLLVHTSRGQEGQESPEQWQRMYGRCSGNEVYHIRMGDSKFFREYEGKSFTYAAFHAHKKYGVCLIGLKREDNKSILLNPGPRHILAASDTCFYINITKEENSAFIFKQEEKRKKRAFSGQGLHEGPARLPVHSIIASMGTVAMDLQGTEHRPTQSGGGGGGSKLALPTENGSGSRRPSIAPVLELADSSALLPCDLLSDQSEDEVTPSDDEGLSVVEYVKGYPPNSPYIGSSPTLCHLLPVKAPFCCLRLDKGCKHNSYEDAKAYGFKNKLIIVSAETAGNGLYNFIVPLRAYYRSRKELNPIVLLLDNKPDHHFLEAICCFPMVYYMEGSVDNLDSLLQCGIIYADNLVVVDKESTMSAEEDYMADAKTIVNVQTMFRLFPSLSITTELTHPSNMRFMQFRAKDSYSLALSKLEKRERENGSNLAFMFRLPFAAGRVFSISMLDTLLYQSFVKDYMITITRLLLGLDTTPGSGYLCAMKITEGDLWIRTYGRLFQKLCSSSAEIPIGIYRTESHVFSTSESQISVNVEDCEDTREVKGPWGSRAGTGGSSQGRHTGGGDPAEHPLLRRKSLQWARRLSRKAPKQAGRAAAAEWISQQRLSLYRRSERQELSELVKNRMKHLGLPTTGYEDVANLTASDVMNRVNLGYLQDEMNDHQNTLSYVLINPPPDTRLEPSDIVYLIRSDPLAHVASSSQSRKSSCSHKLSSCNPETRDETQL
Assay: KCNT1-WT-Basal-Patch Clamp Assay
Format: cell-based
Settings: tetracycline inducible cell line (HEK-TREX), SyncroPatch 384PE automated patch clamp, perforated patch, holding -80 mV with step to 0 mV, room temperature
Experimental: KCNT1-WT-Basal-Patch Clamp Assay
Inhibition of KCNT1 (KNa1.1, Slack) was evaluated using a tetracycline inducible cell line (HEK-TREX). Currents were recorded using the SyncroPatch 384PE automated, patch clamp system. Pulse generation and data collection were performed with PatchController384 V1.3.0 and DataController384 V1.2.1 (Nanion Technologies). The access resistance and apparent membrane capacitance were estimated using built-in protocols. Current were recorded in perforated patch mode (10 μM escin) from a population of cells. The cells were lifted, triturated, and resuspended at 800,000 cells/ml. The cells were allowed to recover in the cell hotel prior to experimentation. Currents were recorded at room temperature. The external solution contained the following (in mM): NaCl 105, NMDG 40, KCl 4, MgCl2 1, CaCl2 5 and HEPES 10 (pH=7.4, Osmolarity ˜300 mOsm). The extracellular solution was used as the wash, reference and compound delivery solution. The internal solution contained the following (in mM): NaCl 70, KF 70, KCl 10, EGTA 5, HEPES 5 and Escin 0.01 (pH=7.2, Osmolarity ˜295 mOsm). Escin is made at a 5 mM stock in water, aliquoted, and stored at −20° C. The compound plate was created at 2× concentrated in the extracellular solution. The compound was diluted to 1:2 when added to the recording well. The amount of DMSO in the extracellular solution was held constant at the level used for the highest tested concentration. A holding potential of −80 mV with a 100 ms step to 0 mV was used. Mean current was measured during the step to 0 mV. […] The average mean current from 3 sweeps was calculated and the % inhibition of each compound was calculated. The % Inhibition as a function of the compound concentration was fit with a Hill equation to derive IC50, slope, min and max parameters. If KCNT1 inhibition was less than 50% at the highest tested concentration or if an IC50 could not be calculated, then a percent inhibition was reported in place of the IC50. In this table, “A” indicates IC50 of less than or equal to 1 μM; “B” indicates inhibition of between 1 μM to 20 μM; and “C” indicates inhibition of greater than or equal to 20 μM.

| Compound | IC50 [nM] |
| --- | --- |
| C[C@@H](C(=O)Nc1ccccc1)c1nc(-c2ccnc(C3CC3)c2)no1 (single isomer, unassigned) [Compound 8] | ≤ 1000 |
| CC(C(=O)Nc1ccccc1)c1nc(-c2ccnc(C3CC3)c2)no1 (stereo not drawn) [Compound 1, 2-[3-(2-cyclopropyl-4-pyridyl)-1,2,4-oxadiazol-5-yl]-N-phenyl-propanamide] | ≤ 1000 |
| CC(C(=O)N[C@@H](C)c1ccccc1)c1nc(-c2ccnc(C3CC3)c2)no1 (stereo partly drawn) [Compound 11, 2-(3-(2-cyclopropylpyridin-4-yl)-1,2,4-oxadiazol-5-yl)-N—((S)-1-phenylethyl)propanamide] | ≤ 1000 |
| CC(C(=O)NCc1ccccc1)c1nc(-c2ccnc(C3CC3)c2)no1 (stereo not drawn) [Compound 2, N-benzyl-2-(3-(2-cyclopropylpyridin-4-yl)-1,2,4-oxadiazol-5-yl)propanamide] | ≤ 1000 |
| C[C@H](C(=O)Nc1ccccc1)c1nc(-c2ccnc(C3CC3)c2)no1 (single isomer, unassigned) [Compound 9] | ≤ 1000 |
| CC(C(=O)N1CCCCC1)c1nc(-c2ccnc(C3CC3)c2)no1 (stereo not drawn) [Compound 5, 2-(3-(2-cyclopropylpyridin-4-yl)-1,2,4-oxadiazol-5-yl)-1-(piperidin-1-yl)propan-1-one] | 1000 to 20000 |
| C[C@H](C(=O)NC1CCCCC1)c1nc(-c2ccnc(C3CC3)c2)no1 (single isomer, unassigned) [Compound 4] | ≤ 1000 |
| CC(C(=O)N[C@H](C)c1ccccc1)c1nc(-c2ccnc(C3CC3)c2)no1 (stereo partly drawn) [Compound 12, 2-(3-(2-cyclopropylpyridin-4-yl)-1,2,4-oxadiazol-5-yl)-N—((R)-1-phenylethyl)propanamide] | ≤ 1000 |
| C[C@@H](C(=O)N1CCCCC1)c1nc(-c2ccnc(C3CC3)c2)no1 (single isomer, unassigned) [Compound 6] | 1000 to 20000 |
| CC(C(=O)N(C)c1ccccc1)c1nc(-c2ccnc(C3CC3)c2)no1 (stereo not drawn) [Compound 10, -[3-(2-cyclopropyl-4-pyridyl)-1,2,4-oxadiazol-5-yl]-N-methyl-N-phenyl-propanamide] | 1000 to 20000 |
| C[C@@H](C(=O)NC1CCCCC1)c1nc(-c2ccnc(C3CC3)c2)no1 (single isomer, unassigned) [Compound 3] | ≤ 1000 |
| C[C@H](C(=O)N1CCCCC1)c1nc(-c2ccnc(C3CC3)c2)no1 (single isomer, unassigned) [Compound 7] | ≥ 20000 |
